For the experiment, the target named is USP7 (Homo sapiens (Human), UniProt Q93009). The experiment can be described thus: USP7 fluorescence polarisation (FP) biochemical assay, ubiquitin-Lys-TAMRA substrate. The method in brief:
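Full-length His6-USP7 (2.5 nM) incubated ± inhibitor (8-point dilutions, 200 to 0.1 μM before addition) in 50 mM HEPES pH 7.2, 150 mM NaCl, 0.5 mM EDTA, 5 mM DTT, 0.05% BSA, 0.05% CHAPS. Ubiquitin-Lys-TAMRA cleavage followed by FP (ex 530/em 575 nm) every 15 min for 1.5 h; normalised to no-compound control.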

The mark [1] stands for this setting: Table 4, biochemical assay, average of at least duplicate experiments, read-out: USP7 IC50.
[2] abbreviates: USP7 IC50, Table 4, biochemical assay, average of at least duplicate experiments.

Our source for the IC50 values is patent publication US10766903B2 (ALMAC DISCOVERY LIMITED, priority 2016, dated 2020).

The term IC50 denotes the point on the concentration scale where inhibition reaches its midpoint.

Molecules are shown by their SMILES. Counter-ions that a name gives are not always drawn. Like-named read-outs stand apart in the source and are kept apart here.

Sequence of USP7 (Q93009 whole entry): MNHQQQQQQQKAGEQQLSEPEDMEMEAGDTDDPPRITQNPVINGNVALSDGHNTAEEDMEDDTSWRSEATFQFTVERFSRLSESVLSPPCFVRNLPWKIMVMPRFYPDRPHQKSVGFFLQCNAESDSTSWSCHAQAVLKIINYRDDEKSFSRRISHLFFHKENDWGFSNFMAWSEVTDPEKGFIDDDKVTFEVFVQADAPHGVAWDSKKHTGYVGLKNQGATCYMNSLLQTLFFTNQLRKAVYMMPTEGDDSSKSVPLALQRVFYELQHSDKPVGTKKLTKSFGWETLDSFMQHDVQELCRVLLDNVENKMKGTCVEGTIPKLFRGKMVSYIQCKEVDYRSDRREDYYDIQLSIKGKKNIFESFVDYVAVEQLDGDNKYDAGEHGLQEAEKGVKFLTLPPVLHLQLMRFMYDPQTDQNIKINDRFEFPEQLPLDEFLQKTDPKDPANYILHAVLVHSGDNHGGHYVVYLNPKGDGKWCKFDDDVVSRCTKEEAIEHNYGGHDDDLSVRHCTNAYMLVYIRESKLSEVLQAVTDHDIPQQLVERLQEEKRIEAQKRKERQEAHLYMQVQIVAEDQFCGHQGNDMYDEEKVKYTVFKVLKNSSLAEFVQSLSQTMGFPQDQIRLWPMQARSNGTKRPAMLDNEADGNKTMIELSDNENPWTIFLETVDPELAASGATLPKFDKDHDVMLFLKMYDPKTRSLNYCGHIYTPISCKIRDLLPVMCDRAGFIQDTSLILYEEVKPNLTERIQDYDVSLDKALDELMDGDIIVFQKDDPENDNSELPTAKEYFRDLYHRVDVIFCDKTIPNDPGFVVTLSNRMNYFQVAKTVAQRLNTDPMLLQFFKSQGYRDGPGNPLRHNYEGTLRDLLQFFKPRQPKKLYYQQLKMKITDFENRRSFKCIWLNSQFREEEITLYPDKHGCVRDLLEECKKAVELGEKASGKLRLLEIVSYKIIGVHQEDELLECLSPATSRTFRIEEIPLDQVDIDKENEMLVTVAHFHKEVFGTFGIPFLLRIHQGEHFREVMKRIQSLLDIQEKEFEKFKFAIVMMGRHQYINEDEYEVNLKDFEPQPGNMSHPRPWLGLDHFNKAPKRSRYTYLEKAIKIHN

For the molecule `Cn1nc2c(=O)n(CC3(O)CCN(C(=O)C[C@H](c4ccccc4)C(F)(F)F)CC3)cnc2c1-c1ccc(C2(N)CC2)cc1` [Example 124, (R)-3-(4-(1-Aminocyclopropyl)phenyl)-6-((4-hydroxy-1-(4,4,4-trifluoro-3-phenylbutanoyl)piperidin-4-yl)methyl)-2-methyl-2H-pyrazolo[4,3-d]pyrimidin-7(6H)-one], the IC50 under setting [1] is less than 250 nM.

As to `CN(C)Cc1ccc(-c2c3ncn(CC4(O)CCN(C(=O)C[C@H](c5ccccc5)C(F)(F)F)CC4)c(=O)c3nn2C)cc1` [Example 79, (R)-3-(4-((Dimethylamino)methyl)phenyl)-6-((4-hydroxy-1-(4,4,4-trifluoro-3-phenylbutanoyl)piperidin-4-yl)methyl)-2-methyl-2H-pyrazolo[4,3-d]pyrimidin-7(6H)-one], the IC50 under setting [1] is less than 250 nM.

For the molecule `C[C@H](CC(=O)N1CCC(O)(Cn2cnc(Nc3ccc4c(c3)C3CCC4N3)cc2=O)CC1)c1ccccc1` (stereo partly drawn) [Example 42, 3-((4-Hydroxy-1-((R)-3-phenylbutanoyl)piperidin-4-yl)methyl)-6-((1,2,3,4-tetrahydro-1,4-epiminonaphthalen-6-yl)amino)pyrimidin-4(3H)-one hydrochloride], the IC50 lay in the range of 250 to 999 nM.

Regarding `CC1(C(=O)N2CCC(O)(Cn3cnc4c(cc(Cl)n4-c4cccc(C5CC5)c4)c3=O)CC2)CC1` [Example 218, 6-Chloro-7-(3-cyclopropylphenyl)-3-((4-hydroxy-1-(1-methylcyclopropanecarbonyl)piperidin-4-yl)methyl)-3H-pyrrolo[2,3-d]pyrimidin-4(7H)-one], the IC50 under setting [1] is less than 250 nM.

For the molecule `C[C@H](CC(=O)N1CCC(O)(Cc2cnc3ccccn3c2=O)CC1)c1ccccc1` [Example 18, (R)-3-((4-Hydroxy-1-(3-phenylbutanoyl)piperidin-4-yl)methyl)-4H-pyrido[1,2-a]pyrimidin-4-one], the IC50 under setting [1] is 1000 to 200000 nM.

Take `C[C@H](CC(=O)N1CCC(O)(Cn2cnc(NC[C@H]3CCCN3C)cc2=O)CC1)c1ccccc1` [Example 65, 3-((4-Hydroxy-1-((R)-3-phenylbutanoyl)piperidin-4-yl)methyl)-6-((((R)-1-methylpyrrolidin-2-yl)methyl)amino)pyrimidin-4(3H)-one, Formic Acid]: under setting [1], the IC50 was in the range of 250 to 999 nM.

For `C[C@H]1CCN(CCNc2cc(=O)n(CC3(O)CCN(C(=O)C[C@@H](C)c4ccccc4)CC3)cn2)C1` [Example 71, 3-((4-Hydroxy-1-((R)-3-phenylbutanoyl)piperidin-4-yl)methyl)-6-((2-((S)-3-methylpyrrolidin-1-yl)ethyl)amino)pyrimidin-4(3H)-one, Formic Acid], the IC50 under setting [1] was less than 250 nM.

With `Cc1nc2c(=O)n(CC3(O)CCN(C(=O)CC(C4CC4)C4CC4)CC3)cnc2n1-c1ccccc1` [Example 190, 1-((1-(3,3-Dicyclopropylpropanoyl)-4-hydroxypiperidin-4-yl)methyl)-8-methyl-9-phenyl-1H-purin-6(9H)-one], the IC50 under setting [1] lay within 1000 to 200000 nM.

`C[C@H](CC(=O)N1CCC(O)(Cn2cnc(NC[C@@H](C)N3CCCC3)cc2=O)CC1)c1ccccc1` [Example 58, 3-((4-Hydroxy-1-((R)-3-phenylbutanoyl)piperidin-4-yl)methyl)-6-(((R)-2-(pyrrolidin-1-yl)propyl)amino)pyrimidin-4(3H)-one]: the IC50 under setting [1] was less than 250 nM.

For `Cc1nc2c(=O)n(CC3(O)CCN(C(=O)C[C@H](c4ccccc4)C(F)(F)F)CC3)cnc2n1-c1ccccc1` [Example 189, (R)-1-((4-Hydroxy-1-(4,4,4-trifluoro-3-phenylbutanoyl)piperidin-4-yl)methyl)-8-methyl-9-phenyl-1H-purin-6(9H)-one], the IC50 under setting [2] was in the range of 250 to 999 nM.

As to `C[C@H](CC(=O)N1CCC(O)(Cn2cnc(NCc3ccnn3C)cc2=O)CC1)c1ccccc1` [Example 154, (R)-3-((4-hydroxy-1-(3-phenylbutanoyl)piperidin-4-yl)methyl)-6-(((1-methyl-1H-pyrazol-5-yl)methyl)amino)pyrimidin-4(3H)-one], under setting [1], the IC50 fell in the range of 1000 to 200000 nM.

For `C[C@H](CC(=O)N1CCC(O)(Cn2cnc(N3CCC4(CCOC4)C3)cc2=O)CC1)c1ccccc1` (stereo partly drawn) [Example 152, 3-((4-hydroxy-1-((R)-3-phenylbutanoyl)piperidin-4-yl)methyl)-6-(2-oxa-7-azaspiro[4.4]nonan-7-yl)pyrimidin-4(3H)-one], the IC50 under setting [1] was 1000 to 200000 nM.

`C[C@H](CC(=O)N1CCC(O)(Cn2cnc3c(nc(-c4ccccc4)n3C)c2=O)CC1)c1ccccc1` [Example 16, (R)-1-((4-Hydroxy-1-(3-phenylbutanoyl)piperidin-4-yl)methyl)-9-methyl-8-phenyl-1H-purin-6(9H)-one]: the IC50 under setting [1] is 1000 to 200000 nM.

Consider `C[C@H](CC(=O)N1CCC(O)(Cn2cnc3cn(C)nc3c2=O)CC1)c1ccccc1` [Example 20, (R)-6-((4-Hydroxy-1-(3-phenylbutanoyl)piperidin-4-yl)methyl)-2-methyl-2H-pyrazolo[4,3-d]pyrimidin-7(6H)-one], for which the IC50 was 3000 nM (Table 3, effect of the R2 substituent, read-out: USP7 IC50) and 1000 to 200000 nM under setting [1].

Turning to `Cn1nc2c(=O)n(CC3(O)CCN(C(=O)C[C@H](c4ccc(F)cc4)C(F)(F)F)CC3)cnc2c1-c1ccc(CN)cc1` [Example 85, (R)-3-(4-(Aminomethyl)phenyl)-6-((4-hydroxy-1-(4,4,4-trifluoro-3-(4-fluorophenyl)butanoyl)piperidin-4-yl)methyl)-2-methyl-2H-pyrazolo[4,3-d]pyrimidin-7(6H)-one], the IC50 under setting [1] was less than 250 nM.

In the case of `C[C@H](CC(=O)N1CCC(O)(Cn2cnc(NCCN3CCC[C@@H]3C)cc2=O)CC1)c1ccccc1` [Example 69, 3-((4-Hydroxy-1-((R)-3-phenylbutanoyl)piperidin-4-yl)methyl)-6-((2-((S)-2-methylpyrrolidin-1-yl)ethyl)amino)pyrimidin-4(3H)-one, Formic Acid], the IC50 under setting [1] was less than 250 nM.

Regarding `Cn1nc2c(=O)n(CC3(O)CCN(C(=O)c4cnc(C5CC5)o4)CC3)cnc2c1-c1ccc(CN)cc1` [Example 238, 3-(4-(Aminomethyl)phenyl)-6-((1-(2-cyclopropyloxazole-5-carbonyl)-4-hydroxypiperidin-4-yl)methyl)-2-methyl-2,6-dihydro-7H-pyrazolo[4,3-d]pyrimidin-7-one], the IC50 under setting [1] fell in the range of 250 to 999 nM.

With `C[C@H](CC(=O)N1CCC(O)(Cn2cnc(N3CCC[C@H](N)C3)cc2=O)CC1)c1ccccc1` [Example 47, 6-((S)-3-Aminopiperidin-1-yl)-3-((4-hydroxy-1-((R)-3-phenylbutanoyl)piperidin-4-yl)methyl)pyrimidin-4(3H)-one hydrochloride], the half-maximal inhibitory concentration (IC50) under setting [2] lay in the range of 250 to 999 nM.

In the case of `C[C@H](CC(=O)N1CCC(O)(Cn2cnc(N3CCN(Cc4ccccn4)CC3)cc2=O)CC1)c1ccccc1` [Example 159, (R)-3-((4-hydroxy-1-(3-phenylbutanoyl)piperidin-4-yl)methyl)-6-(4-(pyridin-2-ylmethyl)piperazin-1-yl)pyrimidin-4(3H)-one], the IC50 under setting [1] is 1000 to 200000 nM.

Consider `CC(=O)N(CCN1CCCC1)c1cc(=O)n(CC2(O)CCN(C(=O)C[C@@H](C)c3ccccc3)CC2)cn1` [Example 113, (R)—N-(1-((4-Hydroxy-1-(3-phenylbutanoyl)piperidin-4-yl)methyl)-6-oxo-1,6-dihydropyrimidin-4-yl)-N-(2-(pyrrolidin-1-yl)ethyl)acetamide, Formic Acid], for which, under setting [1], the IC50 fell in the range of 1000 to 200000 nM.

In the case of `C[C@H](CC(=O)N1CCC(O)(Cn2cnc(N3CCCC3CNC(=O)OC(C)(C)C)cc2=O)CC1)c1ccccc1` (stereo partly drawn) [Example 147, tert-butyl ((1-(1-((4-hydroxy-1-((R)-3-phenylbutanoyl)piperidin-4-yl)methyl)-6-oxo-1,6-dihydropyrimidin-4-yl)pyrrolidin-2-yl)methyl)carbamate], the IC50 under setting [1] was 1000 to 200000 nM.

Take `C[C@H](CC(=O)N1CCC(O)(Cn2cnc(N3CCN(C)CC3)cc2=O)CC1)c1ccccc1` [Example 8, (R)-3-((4-Hydroxy-1-(3-phenylbutanoyl)piperidin-4-yl)methyl)-6-(4-methylpiperazin-1-yl)pyrimidin-4(3H)-one]: under setting [1], the IC50 is 1000 to 200000 nM.

As to `C[C@H](CC(=O)N1CCC(O)(Cn2cnc3c(-c4ccc(C(=O)O)cc4)n(C)nc3c2=O)CC1)c1ccccc1` [Example 243, (R)-4-(6-((4-Hydroxy-1-(3-phenylbutanoyl)piperidin-4-yl)methyl)-2-methyl-7-oxo-6,7-dihydro-2H-pyrazolo[4,3-d]pyrimidin-3-yl)benzoic Acid], the concentration for half-maximal inhibition (IC50) under setting [1] fell in the range of 1000 to 200000 nM.

As for `CC(=O)N1CCC(O)(Cn2cnc3c(-c4ccccc4)n(C)nc3c2=O)CC1` [Example 131, 6-((1-Acetyl-4-hydroxypiperidin-4-yl)methyl)-2-methyl-3-phenyl-2H-pyrazolo[4,3-d]pyrimidin-7(6H)-one], under setting [1], the IC50 was 1000 to 200000 nM.

Take `Cn1cc(C(=O)N2CCC(O)(Cn3cnc4c(cc(Cl)n4-c4ccccc4)c3=O)CC2)cn1` [Example 216, 6-Chloro-3-((4-hydroxy-1-(1-methyl-1H-pyrazole-4-carbonyl)piperidin-4-yl)methyl)-7-phenyl-3H-pyrrolo[2,3-d]pyrimidin-4(7H)-one]: the IC50 under setting [1] was 250 to 999 nM.

As to `Cn1nc2c(=O)n(CC3(O)CCN(C(=O)c4cnco4)CC3)cnc2c1-c1ccccc1` [Example 192, 6-((4-Hydroxy-1-(oxazole-5-carbonyl)piperidin-4-yl)methyl)-2-methyl-3-phenyl-2H-pyrazolo[4,3-d]pyrimidin-7(6H)-one], the IC50 under setting [1] is 1000 to 200000 nM.

For the molecule `C[C@H](CC(=O)N1CCC(O)(CN2C(=O)Cc3ccccc32)CC1)c1ccccc1` [Example 126, (R)-1-((4-Hydroxy-1-(3-phenylbutanoyl)piperidin-4-yl)methyl)indolin-2-one], the IC50 under setting [1] is 1000 to 200000 nM.

As to `C[C@H](CC(=O)N1CCC(O)(Cn2cnc3c(-c4ccncc4)n(C)nc3c2=O)CC1)c1ccccc1` [Example 26, (R)-6-((4-Hydroxy-1-(3-phenylbutanoyl)piperidin-4-yl)methyl)-2-methyl-3-(pyridin-4-yl)-2H-pyrazolo[4,3-d]pyrimidin-7(6H)-one], the IC50 under setting [1] lay within 250 to 999 nM.
